Measured values: patent US9359346B2, “Benzamide derivative and use thereof” (VIVOZON, INC., priority 2011, dated 2016)
Read-outs that look alike come from different tables or passages of the source.

Legend:
[1] = system: formalin model; assay: Formalin pain model, licking and shaking; format: in vivo, rat; conditions: for pain relieving effect, antagonist alone: single administration, FIG. 26(a); for pain behavior (licking and shaking) induced by formalin: 12.5, 25 and 50 mg/kg, 5% formalin i.pl., FIGS. 23 and 24
[2] = system: neuropathic pain model (Chung model); assay: Neuropathic pain model (Chung model, SNL), paw withdrawal threshold; format: in vivo, rat; conditions: for pain suppression efficacy, antagonist alone: single administration, ORG-25543 10 or 20 mg/kg, FIG. 25(a)
[3] = target: T1, GlyT2 (Rattus norvegicus, UniProt P58295); assay: FLIPR membrane potential assay for GlyT2 target activity (T-rex-293-rGlyT2 cells); format: cell-based; conditions: for inhibition at 10 µM: read-out: GlyT2 % inhibition
T1 construct: expressed in transfected cells
T1 sequence (P58295 1-799): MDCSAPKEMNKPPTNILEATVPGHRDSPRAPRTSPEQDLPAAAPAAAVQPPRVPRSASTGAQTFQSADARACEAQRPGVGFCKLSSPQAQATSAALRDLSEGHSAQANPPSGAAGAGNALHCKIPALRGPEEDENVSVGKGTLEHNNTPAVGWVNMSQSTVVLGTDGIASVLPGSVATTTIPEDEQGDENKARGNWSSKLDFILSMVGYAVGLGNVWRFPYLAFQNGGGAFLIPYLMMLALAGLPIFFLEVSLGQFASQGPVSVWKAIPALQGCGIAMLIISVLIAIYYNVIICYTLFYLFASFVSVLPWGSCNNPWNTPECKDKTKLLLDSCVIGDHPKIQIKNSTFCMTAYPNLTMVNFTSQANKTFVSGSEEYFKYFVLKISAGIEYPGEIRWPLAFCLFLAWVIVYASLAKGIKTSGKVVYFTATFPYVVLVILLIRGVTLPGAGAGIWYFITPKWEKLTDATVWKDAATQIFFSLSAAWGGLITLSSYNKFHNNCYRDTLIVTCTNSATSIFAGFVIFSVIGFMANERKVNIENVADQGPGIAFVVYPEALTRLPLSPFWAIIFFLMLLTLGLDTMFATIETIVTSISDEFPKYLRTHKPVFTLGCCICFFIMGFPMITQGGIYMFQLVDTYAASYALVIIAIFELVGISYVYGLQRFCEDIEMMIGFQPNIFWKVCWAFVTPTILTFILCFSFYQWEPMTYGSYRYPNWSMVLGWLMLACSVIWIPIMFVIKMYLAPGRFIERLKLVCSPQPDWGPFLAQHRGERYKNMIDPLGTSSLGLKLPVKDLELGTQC
Experimental: GlyT2 (Glycine transporter type 2) is an electrogenic carrier associated with Na^+/Cl^− ion transportation, primarily distributed around the spinal cord part, and has an important role in the transfer of a pain signal in the spinal cord.
In order to identify the fact that the novel compound of the present invention has GlyT2 targeting activity, a membrane potential assay was performed. FLIPR Membrane Potential Assay is used to measure ion channel modulation caused by an increase or decrease in fluorescence signal due to variations of cellular membrane potential.
First, pcDNA4/TO vector encoding GlyT2 of the rat in HEK293 cell was transfected to prepare a stable recombinant cell line, i.e., T-rex-293-rGlyT2. A […] (Greiner #655090) coated with poly-D-lysine was prepared, and the above recombinant cells (T-rex-293-rGlyT2) were seeded at 3.2×10^4/well therein using a medium containing 15 μg/ml of tetracycline. After this, incubation was conducted at 37° C. for 48 hours under 5% CO2 conditions to express GlyT2. 10 ml of assay buffer (1×HBSS, 20 mM HEPES, pH 7.4) was added to a blue dye solution and sufficiently dissolved therein to prepare a membrane potential dye solution. After removing the medium from the well showing GlyT2 expression, the membrane potential dye solution was added to the well in an amount of 100 μl/well and incubated for 20 minutes.
According to the FLIPR Membrane Potential Assay kit's protocol, SoftMax Pro Software of FlexStation 3 software (Molecular Devices, US) was set up. An extent of GlyT2 expression was determined such that the extent of cellular membrane depolarization relative to an administered amount of glycine during glycine treatment is indicated in relative fluorescence units (RFU), and RFU (Max-Min) is calculated by subtracting the minimum value from the maximum value of RFU. After firstly treating 10 uM of the novel compound according to the present invention, glycine was treated and RFU (Max-Min) for glycine administration was determined. Then, with the determined result, the extent of depolarization inhibition (% inhibition) was assessed for each compound, compared to a positive control.
The positive control used herein was ORG25543 (500 nM) having strong inhibitory efficacy specific to GlyT2.
For GlyT2 inhibitory efficacy, the efficacy of the compound ORG25543 (500 nM) was defined as 100%. Similarly, for 5HT2A inhibitory efficacy, the efficacy of MDL11939 (100 nM) was defined as 100%. Therefore, the target inhibitory efficacy of each compound was indicated in a relative value compared to the above defined efficacy.

[4] = system: serotonin-derived itching; assay: Itching model, serotonin-derived itching; format: in vivo, rat; conditions: 50 mg/kg s.c.; serotonin 25 μg/50 μl intradermal; vs naloxone 5 mg/kg intraperitoneal
[5] = target: 5HT2A (Homo sapiens, UniProt P28223); assay: FLIPR calcium assay for 5HT2A target activity (transfected HEK293 cells); format: cell-based
[6] = system: poly-L-arginine-derived itching; assay: Itching model, poly-L-arginine-derived itching; format: in vivo, rat; conditions: 50 mg/kg s.c.; poly-L-arginine 200 μg/50 μl intradermal; vs naloxone 5 mg/kg intraperitoneal
[7] = HEK293, read-out: 5HT2A % inhibition
[8] = 10 uM compound, then glycine, relative to ORG25543 (500 nM) defined as 100%
[9] = subcutaneous 50 mg/kg or oral 100 mg/kg, gabapentin 55 to 70 mg/kg intraperitoneal, FIGS. 1 to 22
[10] = HEK293, 10 uM compound, then serotonin, relative to MDL11939 (100 nM) defined as 100%, read-out: 5HT2A % inhibition

Chain of 5HT2A (P28223 whole entry, species assumed): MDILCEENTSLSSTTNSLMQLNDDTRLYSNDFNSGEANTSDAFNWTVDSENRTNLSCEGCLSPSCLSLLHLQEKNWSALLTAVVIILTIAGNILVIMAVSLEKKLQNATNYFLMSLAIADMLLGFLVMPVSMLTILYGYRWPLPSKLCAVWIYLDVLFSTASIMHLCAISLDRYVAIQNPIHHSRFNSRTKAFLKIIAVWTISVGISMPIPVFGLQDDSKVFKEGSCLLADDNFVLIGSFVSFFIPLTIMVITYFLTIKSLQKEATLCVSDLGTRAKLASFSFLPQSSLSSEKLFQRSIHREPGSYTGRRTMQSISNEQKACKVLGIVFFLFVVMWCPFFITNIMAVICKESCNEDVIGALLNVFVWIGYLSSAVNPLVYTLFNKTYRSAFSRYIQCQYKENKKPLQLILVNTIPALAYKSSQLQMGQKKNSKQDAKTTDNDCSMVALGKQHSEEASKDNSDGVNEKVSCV

| SMILES | inhibition at 10 µM [3] [%] | inhibition at 10 µM [5, 7] [%] | analgesic efficacy compared to GBP positive control [2, 9] | other results |
| --- | --- | --- | --- | --- |
| OC(c1ccccc1)C1CCN(CCc2ccccc2)CC1 (stereo not drawn) [MDL 11,939, reference compound] | – | – | – | pain relieving effect, antagonist alone [1]: no or very little pain relieving effect; pain suppression efficacy, antagonist alone [2]: no or very little pain relieving effect |
| COc1cc(C(=O)NCC2(N(C)C)CCCC2)cc(OC)c1OCc1ccccc1 [ORG-25543, reference compound] | – | – | – | pain relieving effect, antagonist alone [1]: no or very little pain relieving effect; pain suppression efficacy, antagonist alone [2]: did not show pain suppression efficacy; pain suppression efficacy, antagonist alone ([2]; listed as ORG2553): no or very little pain relieving effect |
| CCCCOc1c(OC)cc(C(=O)NCC2(N(C)C)CCOCC2)cc1OC [VVZ-005] | 101 | 61.2 | – | itching behavior (number and duration of scratching) induced by serotonin [4]: suppressing itching behavior; itching behavior (number and duration of scratching) induced by poly-L-arginine [6]: suppressing itching behavior; pain behavior (licking and shaking) induced by formalin [1]: suppressing pain behavior induced by formalin; analgesic efficacy compared to GBP positive control ([2]; rat, in vivo): analgesic efficacy substantially equal to 0 °C superior to GBP |
| CCCCOc1c(OC)cc(C(=O)NCC(c2ccc(OC)cc2)N(C)C)cc1OC (stereo not drawn) [VVZ-024] | – | 70.5 | analgesic efficacy substantially equal to 0 °C superior to GBP | inhibition at 10 µM [3, 8]: 96.7% |
| CCCCOc1c(OC)cc(C(=O)Nc2nnc(C)s2)cc1OC [VVZ-025] | – | – | analgesic efficacy substantially equal to 0 °C superior to GBP | – |
| CCCCOc1c(OC)cc(C(=O)NCC2(N3CCN(C)CC3)CCCCC2)cc1OC [VVZ-032] | – | – | analgesic efficacy substantially equal to 0 °C superior to GBP | – |
| CN(C)C1(CNC(=O)c2ccc(OCc3ccccc3)cc2)CCOCC1 [VVZ-038] | 108 | 96.1 | analgesic efficacy substantially equal to 0 °C superior to GBP | – |
| COc1cc(C(=O)NCC(=O)N2CCC(C)CC2)cc(OC)c1OCc1ccccc1 [VVZ-040] | – | – | analgesic efficacy substantially equal to 0 °C superior to GBP | – |
| CCCCOc1c(OC)cc(C(=O)NCC2(N(C)CC)CCOCC2)cc1OC [VVZ-041] | – | – | analgesic efficacy substantially equal to 0 °C superior to GBP | inhibition at 10 µM [3, 8]: 79.2%; inhibition at 10 µM [5, 10]: 105% |
| CCCCOc1ccc(C(=O)NCC(c2ccccc2)N(C)C)cc1 (stereo not drawn) [VVZ-052] | 76.6 | 103 | – | – |
| CCCCOc1c(C)cc(C(=O)NCC2(O)CCN(C)CC2)cc1C [VVZ-053] | – | – | – | inhibition at 10 µM [3, 8]: 59.6%; inhibition at 10 µM [5, 10]: 31.4% |
| Cc1cc(C(=O)NCC2(O)CCN(C)CC2)cc(C)c1OCc1ccccc1 [VVZ-054] | – | – | – | inhibition at 10 µM [3, 8]: 82.9%; inhibition at 10 µM [5, 10]: 57.1% |
| COc1cc(N)c(Cl)cc1C(=O)NCC1(O)CCN(C)CC1 [VVZ-055] | – | – | – | inhibition at 10 µM [3, 8]: 55.3%; inhibition at 10 µM [5, 10]: 146% |
| CCCCOc1c(C)cc(C(=O)NCC(c2ccccc2)N(C)C)cc1C (stereo not drawn) [VVZ-057] | 101 | 65.7 | – | – |
| Cc1cc(C(=O)NCC2(N(C)C)CCC(F)(F)CC2)cc(C)c1OCc1ccccc1 [VVZ-058] | 102 | 134 | – | – |
| CN(C)C1(CNC(=O)c2cccc(C(F)(F)F)c2)CCC(F)(F)CC1 [VVZ-062] | – | – | analgesic efficacy substantially equal to 0 °C superior to GBP | – |
| Cc1cc(C(=O)NCC2(N3CCN(C)CC3)CCCCC2)cc(C)c1OCc1ccccc1 [VVZ-063] | 112 | 76.7 | – | – |
| CN(C)C1(CNC(=O)c2ccc(OCc3ccccc3)cc2)CCOCC1 [VVZ-065] | – | – | – | GlyT2 % inhibition [3]: 105.1%; 5HT2A % inhibition [5]: 107.8% |
| CCCCOc1c(OC)cc(C(=O)NCC2(NC)CCOCC2)cc1OC [VVZ-068] | – | – | analgesic efficacy substantially equal to 0 °C superior to GBP | inhibition at 10 µM [3, 8]: 105%; itching behavior (number and duration of scratching) induced by serotonin [4]: suppressing itching behavior; inhibition at 10 µM [5, 10]: 69.1%; itching behavior (number and duration of scratching) induced by poly-L-arginine [6]: suppressing itching behavior; pain behavior (licking and shaking) induced by formalin [1]: suppressing pain behavior induced by formalin |
| CN1CCN(C2(CNC(=O)c3ccc(OCc4ccccc4)cc3)CCCCC2)CC1 [VVZ-069] | 83.9 | 150 | – | – |
| COc1cc(C(=O)NCC2(N3CCN(C)CC3)CCOCC2)cc(OC)c1OCc1ccccc1 [VVZ-071] | 78.8 | 60.8 | – | – |
| CN1CCN(C2(CNC(=O)c3ccc(OCc4ccccc4)cc3)CCOCC2)CC1 [VVZ-072] | 59.1 | 101 | – | – |
| COc1cc(C(=O)NCC2(N3CCOCC3)CCOCC2)cc(OC)c1OCc1ccccc1 [VVZ-074] | 73.5 | 155 | – | – |
| O=C(NCC1(N2CCOCC2)CCOCC1)c1ccc(OCc2ccccc2)cc1 [VVZ-076] | 50.6 | 113 | – | – |
| CN(C)C(CNC(=O)c1cccc(C(F)(F)F)c1)c1ccccc1 (stereo not drawn) [VVZ-078] | – | – | analgesic efficacy substantially equal to 0 °C superior to GBP | – |
| Cc1cc(C(=O)NC(CN2CCOCC2)c2ccccc2)cc(C)c1OCc1ccccc1 (stereo not drawn) [VVZ-080] | – | – | – | inhibition at 10 µM [3, 8]: 40.6%; inhibition at 10 µM [5, 10]: 113% |
| O=C(NCC(c1ccccc1)N1CCOCC1)c1ccc(OCc2ccccc2)cc1 (stereo not drawn) [VVZ-081] | 45.3 | 71.5 | – | – |
| COc1cc(C(=O)NCC2(NCc3ccccc3)CCOCC2)cc(OC)c1OCc1ccccc1 [VVZ-084] | – | – | – | inhibition at 10 µM [3, 8]: 79%; inhibition at 10 µM [5, 10]: 94.4% |
